Common to all, as to format: cell-based
Assay [1] relates to RS4; 11. Nature of the assay: MTT assay, cell number relative to vehicle. The note with it: Homo sapiens, 11 (MLL-AF4), Biphenotypic Leukemia with Lymphoblastic Features, 48 hours.
The test system of assay [2] is Molm-13. Nature of the assay: MTT assay, cell number relative to vehicle. To be noted: Homo sapiens, Molm-13 (MLL-AF9), Biphenotypic Leukemia with Myeloid Features, 48 hours. In general terms: Formazan colour is commonly taken as a measure of viable cells.
Assay [3] relates to MV4-11. The assay is described as follows: MTT assay, cell number relative to vehicle. To be noted: Homo sapiens, MV4-11 (MLL-AF4), Biphenotypic Leukemia with Myeloid Features, 48 hours.
Assay [4] concerns NOMO-1. The assay is described as follows: MTT assay, cell number relative to vehicle. The note with it: Homo sapiens, NOMO-1 (MLL-AF9), Biphenotypic Leukemia with Myeloid Features, 48 hours.
For assay [5], the system named is Molm-14. Nature of the assay: MTT assay, cell number relative to vehicle. The note with it: Homo sapiens, Molm-14 (MLL-AF9), Biphenotypic Leukemia with Myeloid Features, 48 hours.
Assay [6] concerns mixed lineage leukemia cell lines. Nature of the assay: Apoptotic and dead cells by flow cytometry (YO-PRO-1 / propidium iodide). The note with it: 48 hours; FIG. 2. The procedure:
Apoptotic and dead cells were identified by flow cytometric analysis of cells stained with propidium iodide and YO-PRO®-1. Cells undergoing apoptosis are stained with YO-PRO®-1, but are impermeable to propidium iodide. Dead cells and cells in late apoptosis are permeable to both dyes. Viable cells are not stained by either dye. Mean (+/−SEM) percentages of apoptotic and dead cells were derived from 3-7 independent experiments.
(§1) Alternatively, an ALL cell line (REH) was treated with Trichostatin A (TSA), sodium phenyl butyrate (SPB), or vehicle only for 48 hours. MTT or BrdU were added for 4 hours. The relative number of viable cells, as indicated by MTT reduction, was determined (FIG. 1A and Table 1). The relative number of proliferating cells, as indicated by BrdU-incorporation, was measured using an ELISA assay (FIG. 1B). IC50 values were calculated using non-linear regression (Table 1). The percentages of apoptotic and dead cells were determined by flow cytometric analysis of cells stained with YO-PRO®-1 and propidium iodide (FIGS. 2 and 5A). DNA content was determined by flow cytometric analysis of propidium iodide stained cells. The fractions of cells with G1, S, and G2/M phase DNA contents were determined (FIGS. 3 and 5B).
Background: In flow cytometry, cells or beads pass a laser one at a time.

The subject of assay [7] is SEM cells. Nature of the assay: MTT assay, cell number relative to vehicle. The note with it: SEM (MLL-AF4), Biphenotypic Leukemia with Lymphoblastic Features, 48 hours.
Assay [8] deals with EOL-1. The assay is described as follows: MTT assay, cell number relative to vehicle. To be noted: Homo sapiens, EOL1, EOL-1 (FIP1L1-PDGFRα), Myeloid Leukemia, 48 hours.
Assay [9] concerns Nalm-6. The assay is described as follows: MTT assay, cell number relative to vehicle. To be noted: Homo sapiens, Nalm-6 (PDGFRβ-TEL), B Cell Lymphoblastic Leukemia, 48 hours.
In assay [10] the test system is KOPN-8. The assay is described as follows: MTT assay, cell number relative to vehicle. To be noted: Homo sapiens, KOPN-8 (MLL-ENL), Biphenotypic Leukemia with Lymphoblastic Features, 48 hours.
In assay [11] the test system is CEM. The assay is described as follows: MTT assay, cell number relative to vehicle. To be noted: Homo sapiens, CCRF-CEM, T Cell Lymphoblastic Leukemia, 48 hours.
Assay [12] concerns RCH-AcV. The assay is described as follows: MTT assay, cell number relative to vehicle. The note with it: RCH-AcV (E2A-PBX1), B Cell Lymphoblastic Leukemia, 48 hours.
Assay [13] deals with Molt-3. Nature of the assay: MTT assay, cell number relative to vehicle. The note with it: Homo sapiens, Molt-3, T Cell Lymphoblastic Leukemia, 48 hours.
The test system of assay [14] is U937. The assay is described as follows: MTT assay, cell number relative to vehicle. The note with it: Homo sapiens, U-937, U937, Myeloid Leukemia, 48 hours.
Assay [15] relates to HL-60. Nature of the assay: MTT assay, cell number relative to vehicle. To be noted: Homo sapiens, HL-60, Myeloid Leukemia, 48 hours.
In assay [16] the test system is KG1. The assay is described as follows: MTT assay, cell number relative to vehicle. To be noted: Homo sapiens, KG-1, KG1, Myeloid Leukemia, 48 hours.
Assay [17] deals with HEL. The assay is described as follows: MTT assay, cell number relative to vehicle. To be noted: Homo sapiens, Myeloid Leukemia, 48 hours.
The subject of assay [18] is HSB-2. The assay is described as follows: MTT assay, cell number relative to vehicle. The note with it: HSB2, HSB-2 (LCK-TCRβ), T Cell Lymphoblastic Leukemia, 48 hours.
In assay [19] the test system is HAL-01. The assay is described as follows: MTT assay, cell number relative to vehicle. To be noted: Homo sapiens, HAL-01 (TCF3/E2A-HLF), B Cell Lymphoblastic Leukemia, 48 hours.
Assay [20] has as its system REH. The assay is described as follows: MTT assay, cell number relative to vehicle. The note with it: Homo sapiens, REH (TEL-AML1), B Cell Lymphoblastic Leukemia, 48 hours. How it is done:
as §1

Assay [21] concerns UOCB1. Nature of the assay: MTT assay, cell number relative to vehicle. The note with it: Homo sapiens, UoC-B1, UOCB1 (E2A-HLF), B Cell Lymphoblastic Leukemia, 48 hours.
Assay [22] has as its system Molt-4. The assay is described as follows: MTT assay, cell number relative to vehicle. To be noted: Homo sapiens, Molt-4, T Cell Lymphoblastic Leukemia, 48 hours.
Assay [23] has as its system Jurkat. Nature of the assay: MTT assay, cell number relative to vehicle. The note with it: Homo sapiens, T Cell Lymphoblastic Leukemia, 48 hours.
The test system of assay [24] is THP-1. Nature of the assay: MTT assay, cell number relative to vehicle. To be noted: Homo sapiens, THP-1 (MLL-AF9), Biphenotypic Leukemia with Myeloid Features, 48 hours.

The term IC50 denotes the concentration that inhibits the measured activity by half. Higher therefore signals lower potency.

The structures appear in SMILES notation.

With `Nc1ccccc1NC(=O)c1ccc(CNC(=O)OCc2cccnc2)cc1` [entinostat, N-(2-aminophenyl)-4-(N-(pyridin-3-ylmethoxycarbonyl)aminomethyl)benzamide], the IC50 stood at 2420 nM in assay [1]; 758 nM in assay [2]; 362 nM in assay [3]; 587 nM in assay [4]; 839 nM in [5]; 250 nM in [7]. The IC50 in assay [8] came out at 120 nM; in assay [9], 801 nM; in assay [10] it was 396 nM; in [11], 1280 nM; in assay [12], 723 nM; in [13] it was 866 nM. Moreover, the IC50 in assay [14] turned out to be 1000 nM; in [15], 690 nM; in assay [16] it was 1540 nM; in assay [17], 957 nM; in [18], 1290 nM; in assay [19], 499 nM. The IC50 came out at 1500 nM in assay [20]; 686 nM in assay [21]; 721 nM in assay [22]; 1270 nM in assay [23]; 4450 nM in [24]. The “induction of cell death (apoptotic and dead cells)” value in [6] is “dose-dependent cell death”.
As to `O=C(CCCCCCC(=O)Nc1ccccc1)NO` [vorinostat, N′-hydroxy-N-phenyl-octanediamide], the “induction of cell death (apoptotic and dead cells)” value in assay [6] is reported as “dose-dependent cell death”. This compound also showed an IC50 in [23] of 810 nM.

These data come from patent publication US20110053991A1, “Treatment of Histone Deacetylase Mediated Disorders” (priority 2007, published 2011).
